According to article PMC9218685, “Legume Plant Peptides as Sources of Novel Antimicrobial Molecules Against Human Pathogens” (Frontiers in Molecular Biosciences, 2022):
Values after ≈ are worked out from the molar mass of the structure shown. Peptide text beside a SMILES is read from it.

What was measured:
[1] = tested on: Acinetobacter baumannii (ATCC 17978); assay: microbe, parasite or virus in culture; format: cell-based; conditions: ATCC 17978, 3 h
How it was run: (§1)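 About 10^7 log-phase bacteria were treated for 3 h in potassium-phosphate buffer (pH 7.4) with 2-fold peptide dilutions from 25 µM downward. MBC was the lowest concentration that completely eliminated viable bacteria.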

[2] = tested on: E. coli, S. enteritidis, P. aeruginosa, L. monocytogenes, S. aureus, E. faecalis, K. pneumoniae and A. baumannii; assay: Antimicrobial activity assay, spectrum over the eight tested pathogenic bacteria; format: cell-based; conditions: 3 h treatment of ~10^7 log phase bacteria, peptides 25 to 0.8 µM; active = MBC ≤25 µM
How it was run: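 MBC taken as the lowest peptide concentration leaving no viable bacteria after 3 h exposure of ~10^7 log-phase cells. Peptides tested by 2-fold serial dilution, 25 µM down to 0.8 µM, in PPB (pH 7.4). Gram-positive and Gram-negative reference strains from ATCC, NCTC and HNCMO collections.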

[3] = tested on: Salmonella enterica (ATCC 13076); format: cell-based; conditions: ATCC 13076, 3 h
How it was run: as §1

[4] = tested on: Escherichia coli (ATCC 8739); format: cell-based; conditions: ATCC 8739, 3 h
How it was run: as §1

[5] = tested on: Pseudomonas aeruginosa (ATCC 27853); format: cell-based; conditions: ATCC 27853, 3 h
How it was run: as §1

[6] = tested on: Enterococcus faecalis (ATCC 29212); format: cell-based
How it was run: as §1

[7] = tested on: Listeria monocytogenes (ATCC 19111); format: cell-based; conditions: ATCC 19111, 3 h
How it was run: as §1

[8] = peptides carrying a StrepII tag at their C-terminus, 25 µM, 10% Fetal Bovine Serum, 37°C, 18 h; StrepTactin-HRP Western blot
Experimental: Peptides were incubated in 10% Fetal Bovine Serum at 37°C for 18 h. Full length NCRs were used at 25 μM, while short derivatives at 50 μM. The serum proteins and peptides were separated by sodium dodecyl sulfate-polyacrylamide gel electrophoresis (SDS-PAGE, 12% bis-tris gel, MES buffer pH 7.3) and visualized by Coomassie blue staining. NCRs with StrepII tag at their C-terminus were also detected by Western blot analysis using Precision Protein StrepTactin-HRP conjugate antibody (BioRad) and Clarity Western ECL (BioRad) for chemiluminescence detection according to the supplier.
FIGURE S3 Serum stability assay. Full length NCRs, StrepII-tagged NCR peptides (25 µM) and shorter NCR derivatives (50 µM) were incubated in water or in 10% Fetal Bovine Serum (FBS) for 18 hours at 37°C. Serum proteins and the peptides were separated by SDS-Page and visualized by Coomassie blue staining or in the case of StrepII-tagged NCRs also with Western blot. […]

[9] = tested on: E. coli in vitro coupled transcription/translation; assay: In vitro transcription/translation assay (GFP production); format: biochemical; conditions: RTS 100 E. coli HY Kit, 100 µM peptide or streptomycin, 2 technical parallels
Experimental: RTS 100 E. coli HY Kit (biotechrabbit Gmbh, Germany, catalog number: BR1400102) was used for the in vitro transcription/translation assay, according to the protocol. pIVEX2.3 control vector was used to produce GFP protein and to measure the translational efficiency. The amount of GFP produced was measured using a Hidex Plate Reader (Hidex Sense Microplate Reader with Plate Reader Software version 5064). […] All peptides and streptomycin were used at 100 µM concentration.
FIGURE 5 GFP production by E. coli in vitro coupled transcription-translation assay in the presence of 100 µM NCR or streptomycin. GFP fluorescence represents the average values of 2 technical parallels with their respective standard deviations (SD). *: p < 0.05, ****: p < 0.0001, as determined by one-way ANOVA.

## CC[C@H](C)[C@H](N)C(=O)N[C@@H](CCCNC(=N)N)C(=O)N[C@H](C(=O)N[C@@H](Cc1c[nH]cn1)C(=O)N[C@@H](CS)C(=O)N[C@@H](CCCCN)C(=O)N[C@@H](CC(=O)O)C(=O)N[C@@H](CC(=O)O)C(=O)N[C@@H](Cc1ccccc1)C(=O)N[C@@H](CC(=O)O)C(=O)N[C@@H](CS)C(=O)N[C@H](C(=O)N[C@@H](CCC(=O)O)C(=O)N[C@@H](CC(N)=O)C(=O)N[C@@H](CCCNC(=N)N)C(=O)N[C@@H](CC(C)C)C(=O)N[C@@H](CCC(N)=O)C(=O)N[C@H](C(=O)NCC(=O)N[C@@H](CS)C(=O)N[C@@H](CCCNC(=N)N)C(=O)N[C@@H](CC(C)C)C(=O)N[C@@H](CCC(N)=O)C(=O)N[C@@H](CCCNC(=N)N)C(=O)N[C@@H](CCC(=O)O)C(=O)N[C@@H](CCCCN)C(=O)N1CCC[C@H]1C(=O)N[C@@H](CCCNC(=N)N)C(=O)N[C@@H](CS)C(=O)N[C@H](C(=O)N[C@@H](CC(N)=O)C(=O)N[C@@H](CC(C)C)C(=O)N[C@H](C(=O)N[C@@H](CS)C(=O)N[C@@H](CCCNC(=N)N)C(=O)N[C@@H](CS)C(=O)N[C@@H](CC(C)C)C(=O)N[C@@H](CCCNC(=N)N)C(=O)N[C@@H](CCCNC(=N)N)C(=O)O)C(C)C)C(C)C)C(C)C)[C@@H](C)CC)[C@@H](C)CC [NCR055] (H-IRIHCKDDFDCIENRLQVGCRLQREKPRCVNLVCRCLRR-OH; N-terminus assumed)
[1]
  MBC Acinetobacter baumannii: 3.125 µM (≈ 14.9 µg/mL)
[2]
  Antibacterial spectrum over the eight tested bacterial strains: effective against six bacterial strains but not against S. aureus and K. pneumonia
[3]
  MBC Salmonella enterica: 6.25 µM (≈ 29.7 µg/mL)
[4]
  MBC Escherichia coli: 6.25 µM (≈ 29.7 µg/mL)
[5]
  MBC Pseudomonas aeruginosa: 6.25 µM (≈ 29.7 µg/mL)
[6]; 3 h, ~10^7 log phase bacteria, peptides ≤25 µM
  Ability to kill E. faecalis: able to kill
[6]; ATCC 29212, 3 h
  MBC Enterococcus faecalis: 12.5 µM (≈ 59.5 µg/mL)
[7]
  MBC Listeria monocytogenes: 3.125 µM (≈ 14.9 µg/mL)
[8]
  Stability in serum by Western blot: stable in the presence of FBS

## [H]/N=C(/N)N[C@H]1[C@H](O)[C@@H](O)[C@H](O[C@@H]2O[C@@H](C)[C@](O)(C=O)[C@H]2O[C@@H]2O[C@@H](CO)[C@H](O)[C@@H](O)[C@@H]2NC)[C@@H](N/C(N)=N\[H])[C@@H]1O [streptomycin]
[9]
  Effect on GFP production (translation): inhibited strongly
